Results taken from patent US20080176862A1, “New Compounds 617” (ASTRAZENECA AB, priority 2006, published 2008).
Counter-ions that a name gives are not always drawn.

Target: T1, human β-Secretase (soluble part, AA1-AA460; sBACE-Fc) (Homo sapiens, UniProt P56817)
T1 construct: The soluble part of the human β-Secretase (AA1-AA460) was cloned into the ASP2-Fc10-1-IRES-GFP-neoK mammalian expression vector; made in house
Experiment: TR-FRET assay
Type: biochemical
Conditions: substrate (Europium)CEVNLDAEFK(Qsy7) 100 nM, pH 4.5, 15 min at RT; read-out: IC50 (nM) in TR-FRET assay

T1 sequence (P56817 22-460): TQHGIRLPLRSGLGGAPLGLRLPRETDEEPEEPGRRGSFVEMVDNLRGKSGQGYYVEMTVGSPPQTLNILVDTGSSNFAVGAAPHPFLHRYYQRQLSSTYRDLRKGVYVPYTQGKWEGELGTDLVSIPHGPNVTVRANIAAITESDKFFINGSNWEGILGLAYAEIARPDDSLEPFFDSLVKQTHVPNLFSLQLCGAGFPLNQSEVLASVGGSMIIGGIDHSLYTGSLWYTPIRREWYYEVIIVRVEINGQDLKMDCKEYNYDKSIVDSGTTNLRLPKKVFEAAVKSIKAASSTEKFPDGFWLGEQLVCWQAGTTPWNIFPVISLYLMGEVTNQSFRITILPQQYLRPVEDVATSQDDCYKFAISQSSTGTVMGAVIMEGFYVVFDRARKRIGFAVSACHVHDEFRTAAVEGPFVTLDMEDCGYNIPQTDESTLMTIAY

| Structure (SMILES) | IC50 [nM] |
| --- | --- |
| CN1C(=O)C(c2cccc(OS(C)(=O)=O)c2)(c2ccc(F)c(-c3cccc(Cl)c3)c2)N=C1N (stereo not drawn) [Example 91, 3-[2-Amino-4-(3′-chloro-6-fluorobiphenyl-3-yl)-1-methyl-5-oxo-4,5-dihydro-1H-imidazol-4-yl]phenyl methanesulfonate] | 228 |
| CN1C(=O)C(c2cccc(OS(C)(=O)=O)c2)(c2ccc(F)c(-c3cccnc3F)c2)N=C1N (stereo not drawn) [Example 88, 3-{2-Amino-4-[4-fluoro-3-(2-fluoropyridin-3-yl)phenyl]-1-methyl-5-oxo-4,5-dihydro-1H-imidazol-4-yl}phenylmethanesulfonate] | 234 |
| CN1C(=O)C(c2cccc(OS(=O)(=O)N(C)C)c2)(c2ccc(F)c(-c3cccnc3F)c2)N=C1N (stereo not drawn) [Example 110, 3-{2-Amino-4-[4-fluoro-3-(2-fluoropyridin-3-yl)phenyl]-1-methyl-5-oxo-4,5-dihydro-1H-imidazol-4-yl}phenyldimethylsulfamate] | 114 |
| CN1C(=O)C(c2ccc(OS(C)(=O)=O)cc2)(c2ccc(F)c(C3CCCCC3)c2)N=C1N (stereo not drawn) [Example 300, 4-[2-Amino-4-(3-cyclohexyl-4-fluorophenyl)-1-methyl-5-oxo-4,5-dihydro-1H-imidazol-4-yl]phenyl methanesulfonate 0.5 acetate] | 410 |
| CC(C)S(=O)(=O)Oc1cccc(C2(c3ccc(F)c(-c4cc(Cl)cc(Cl)c4)c3)N=C(N)N(C)C2=O)c1 (stereo not drawn) [Example 109, 3-[2-Amino-4-(3′,5′-dichloro-6-fluorobiphenyl-3-yl)-1-methyl-5-oxo-4,5-dihydro-1H-imidazol-4-yl]phenyl propane-2-sulfonate] | 263 |
| CCc1ccc(C2(c3ccc(F)c(-c4cncnc4)c3)N=C(N)N(C)C2=O)cc1OS(C)(=O)=O (stereo not drawn) [Example 253, 5-[2-Amino-4-(4-fluoro-3-pyrimidin-5-ylphenyl)-1-methyl-5-oxo-4,5-dihydro-1H-imidazol-4-yl]-2-ethylphenyl methanesulfonate 0.5 acetate] | 96 |
| CN1C(=O)C(c2cccc(OS(=O)(=O)C(F)(F)F)c2)(c2cccc(C3=CCCC3)c2)N=C1N (stereo not drawn) [Example 197, 3-[2-Amino-4-(3-cyclopent-1-en-1-ylphenyl)-1-methyl-5-oxo-4,5-dihydro-1H-imidazol-4-yl]phenyl trifluoromethanesulfonate hydrochloride] | 721 |

Further molecules by falling IC50, results first:

| IC50 [nM] | Structure (SMILES) |
| --- | --- |
| 924 | CN1C(=O)C(c2ccc(OS(C)(=O)=O)cc2)(c2ccnc(-c3cccc(C#N)c3)c2)N=C1N (stereo not drawn) [Example 34, 4-{2-Amino-4-[2-(3-cyanophenyl)pyridin-4-yl]-1-methyl-5-oxo-4,5-dihydro-1H-imidazol-4-yl}phenyl methanesulfonate 0.25 acetate] |
| 330 | CN1C(=O)C(c2ccc(OS(C)(=O)=O)cc2)(c2ccc(F)c(C3=CCCCC3)c2)N=C1N (stereo not drawn) [Example 299, 4-[2-Amino-4-(3-cyclohex-1-en-1-yl-4-fluorophenyl)-1-methyl-5-oxo-4,5-dihydro-1H-imidazol-4-yl]phenyl methanesulfonate 0.5 acetate] |
| 116 | CN1C(=O)C(c2ccc(OS(=O)(=O)C(F)(F)F)cc2)(c2ccc(F)c(-c3cncc(Cl)c3)c2)N=C1N (stereo not drawn) [Example 140, 4-{2-Amino-4-[3-(5-chloropyridin-3-yl)-4-fluorophenyl]-1-methyl-5-oxo-4,5-dihydro-1H-imidazol-4-yl}phenyl trifluoromethanesulfonate 0.75 acetate] |
| 59 | CCCS(=O)(=O)Oc1cccc(C2(c3ccc(F)c(-c4cncc(OC)c4)c3)N=C(N)N(C)C2=O)c1 (stereo not drawn) [Example 130, 3-{2-Amino-4-[4-fluoro-3-(5-methoxypyridin-3-yl)phenyl]-1-methyl-5-oxo-4,5-dihydro-1H-imidazol-4-yl}phenyl propane-1-sulfonate hydrochloride] |
| 20 | CN1C(=O)C(c2cccc(OS(=O)(=O)c3ccc4c(c3)oc(=O)n4C)c2)(c2ccc(F)c(-c3cncnc3)c2)N=C1N (stereo not drawn) [Example 240, 3-[2-Amino-4-(4-fluoro-3-pyrimidin-5-ylphenyl)-1-methyl-5-oxo-4,5-dihydro-1H-imidazol-4-yl]phenyl 3-methyl-2-oxo-2,3-dihydro-1,3-benzoxazole-6-sulfonate] |
